Literature values, collected in publication PMC8513935.
Values belong to the compound of their own block, whether it stands above or below them.

What was measured:
[1] = experimental, compiled by the authors from the literature (the ESI cites the sources)
[2] = derived by the authors as gas->solvent minus gas->water (a hypothetical dry solvent; the ESI), not a two-phase measurement

SMILES: CC(C)(C)C
log K of transfer, gas to solvent ([1]; Hexadecane, 25 C): 1.82 log10 K | log K of transfer, gas to solvent ([1]; Hexane, 25 C): 2.03 log10 K | log K of transfer, gas to solvent ([1]; Methanol, 25 C): 1.4 log10 K | log K of transfer, gas to solvent ([1]; Water, 25 C): -1.84 log10 K | log K of transfer, water to solvent ([2]; Hexadecane, 25 C): 3.66 log10 K | log K of transfer, water to solvent ([2]; Hexane, 25 C): 3.87 log10 K | log K of transfer, water to solvent ([2]; Methanol, 25 C): 3.24 log10 K

SMILES: CCSC
log K of transfer, gas to solvent ([1]; Hexadecane, 25 C): 2.37 log10 K | log K of transfer, gas to solvent ([1]; Water, 25 C): 1.1 log10 K | log K of transfer, water to solvent ([2]; Hexadecane, 25 C): 1.27 log10 K

SMILES: OC12CC3CC(CC(C3)C1)C2
log K of transfer, gas to solvent ([1]; Hexadecane, 25 C): 5.63 log10 K | log K of transfer, gas to solvent ([1]; Water, 25 C): 5.15 log10 K | log K of transfer, water to solvent ([2]; Hexadecane, 25 C): 0.484 log10 K

SMILES: Fc1ccccc1
log K of transfer, gas to solvent ([1]; CCl4, 25 C): 2.67 log10 K | log K of transfer, gas to solvent ([1]; Chloroform, 25 C): 3.44 log10 K | log K of transfer, gas to solvent ([1]; Cyclohexane, 25 C): 2.81 log10 K | log K of transfer, gas to solvent ([1]; Hexadecane, 25 C): 2.79 log10 K | log K of transfer, gas to solvent ([1]; Hexane, 25 C): 3.04 log10 K | log K of transfer, gas to solvent ([1]; Tetrahydrofuran, 25 C): 3.62 log10 K | log K of transfer, gas to solvent ([1]; Water, 25 C): 0.59 log10 K | log K of transfer, water to solvent ([2]; CCl4, 25 C): 2.08 log10 K | log K of transfer, water to solvent ([2]; Chloroform, 25 C): 2.85 log10 K | log K of transfer, water to solvent ([2]; Cyclohexane, 25 C): 2.22 log10 K | log K of transfer, water to solvent ([2]; Hexadecane, 25 C): 2.2 log10 K | log K of transfer, water to solvent ([2]; Hexane, 25 C): 2.45 log10 K | log K of transfer, water to solvent ([2]; Tetrahydrofuran, 25 C): 3.03 log10 K

SMILES: c1ccc2ncccc2c1
log K of transfer, gas to solvent ([1]; Chloroform, 25 C): 6.98 log10 K | log K of transfer, gas to solvent ([1]; Hexadecane, 25 C): 5.45 log10 K | log K of transfer, gas to solvent ([1]; Water, 25 C): 4.2 log10 K | log K of transfer, water to solvent ([2]; Chloroform, 25 C): 2.78 log10 K | log K of transfer, water to solvent ([2]; Hexadecane, 25 C): 1.26 log10 K

SMILES: Cc1cncc(C)c1
log K of transfer, gas to solvent ([1]; Hexadecane, 25 C): 4.21 log10 K | log K of transfer, gas to solvent ([1]; Water, 25 C): 3.55 log10 K | log K of transfer, water to solvent ([2]; Hexadecane, 25 C): 0.664 log10 K

The remaining lines, values ahead:

log K of transfer, gas to solvent ([1]; Decan-1-ol, 25 C): 10.9 log10 K | log K of transfer, gas to solvent ([1]; Di-n-butyl ether, 25 C): 10.6 log10 K | log K of transfer, gas to solvent ([1]; Diethyl Ether, 25 C): 11 log10 K | log K of transfer, gas to solvent ([1]; Hexadecane, 25 C): 9.66 log10 K | log K of transfer, gas to solvent ([1]; Hexan-1-ol, 25 C): 10.9 log10 K | log K of transfer, gas to solvent ([1]; Octan-1-ol, 25 C): 10.9 log10 K | log K of transfer, gas to solvent ([1]; Propan-2-ol, 25 C): 10.9 log10 K | log K of transfer, gas to solvent ([1]; Water, 25 C): 1.78 log10 K | log K of transfer, water to solvent ([2]; Decan-1-ol, 25 C): 9.12 log10 K | log K of transfer, water to solvent ([2]; Di-n-butyl ether, 25 C): 8.85 log10 K | log K of transfer, water to solvent ([2]; Diethyl Ether, 25 C): 9.2 log10 K | log K of transfer, water to solvent ([2]; Hexadecane, 25 C): 7.88 log10 K | log K of transfer, water to solvent ([2]; Hexan-1-ol, 25 C): 9.16 log10 K | log K of transfer, water to solvent ([2]; Octan-1-ol(dry), 25 C): 9.15 log10 K | log K of transfer, water to solvent ([2]; Propan-2-ol, 25 C): 9.12 log10 K
SMILES: CCCCCCCCCCCCCCCCCCO

log K of transfer, gas to solvent ([1]; Hexadecane, 25 C): 5.72 log10 K | log K of transfer, gas to solvent ([1]; Methanol, 25 C): 5.23 log10 K | log K of transfer, gas to solvent ([1]; Water, 25 C): 0.03 log10 K | log K of transfer, water to solvent ([2]; Hexadecane, 25 C): 5.69 log10 K | log K of transfer, water to solvent ([2]; Methanol, 25 C): 5.2 log10 K
SMILES: CCCCCCc1ccccc1

log K of transfer, gas to solvent ([1]; Decan-1-ol, 25 C): 12 log10 K | log K of transfer, gas to solvent ([1]; Hexadecane, 25 C): 10.7 log10 K | log K of transfer, gas to solvent ([1]; Hexan-1-ol, 25 C): 12.1 log10 K | log K of transfer, gas to solvent ([1]; Octan-1-ol, 25 C): 12.1 log10 K | log K of transfer, gas to solvent ([1]; Propan-2-ol, 25 C): 11.9 log10 K | log K of transfer, gas to solvent ([1]; Water, 25 C): 1.54 log10 K | log K of transfer, water to solvent ([2]; Decan-1-ol, 25 C): 10.5 log10 K | log K of transfer, water to solvent ([2]; Hexadecane, 25 C): 9.12 log10 K | log K of transfer, water to solvent ([2]; Hexan-1-ol, 25 C): 10.5 log10 K | log K of transfer, water to solvent ([2]; Octan-1-ol(dry), 25 C): 10.5 log10 K | log K of transfer, water to solvent ([2]; Propan-2-ol, 25 C): 10.3 log10 K
SMILES: CCCCCCCCCCCCCCCCCCCCO

log K of transfer, gas to solvent ([1]; Hexadecane, 25 C): 3.14 log10 K | log K of transfer, gas to solvent ([1]; Water, 25 C): 3 log10 K | log K of transfer, water to solvent ([2]; Hexadecane, 25 C): 0.139 log10 K
SMILES: CCCCCN

log K of transfer, gas to solvent ([1]; Hexadecane, 25 C): 3.65 log10 K | log K of transfer, gas to solvent ([1]; Water, 25 C): 2.9 log10 K | log K of transfer, water to solvent ([2]; Hexadecane, 25 C): 0.755 log10 K
SMILES: CCCCCCN
